Activity calls are given as the source filed them.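 How the source made its calls: active means fitted curve reaches 40% activation below the top valid tested dose, in every test run; inconclusive means test runs disagree on the call; inactive means the rest, including effects opposite to the expected direction.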
Assay: E-selectin inducers in HUVECs, dose response, imaging, HUVEC, cherry-picked samples (AID 977605);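 further: signal is the share of imaged cells scored positive for E-selectin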
Details: HUVEC E-selectin immunostaining, percent of TNF-alpha response over vehicle

Row | SMILES | activation (at 19.5 µM (top of the series)) | activation (at 21 µM (top of the series))
1 | C[C@@H]1CN([C@@H](C)CO)C(=O)c2cccc(NC(=O)c3ccc(-c4nccs4)cc3)c2O[C@H]1CN(C)Cc1ccc(Oc2ccccc2)cc1 | 3.4% (inactive) | –
2 | COc1ccc(S(=O)(=O)N(C)C[C@@H]2Oc3ccc(NC(=O)Nc4c(C)noc4C)cc3C(=O)N([C@H](C)CO)C[C@@H]2C)cc1 | -0.123% (inactive) | –
3 | C[C@@H]1CN([C@@H](C)CO)C(=O)c2cc(NC(=O)Cc3cn(C)c4ccccc34)ccc2O[C@H]1CN(C)Cc1ccc2c(c1)OCO2 | -0.066% (inactive) | –
4 | C[C@@H]1CN([C@H](C)CO)C(=O)c2cc(NC(=O)Cc3ccccc3)ccc2O[C@H]1CN(C)C(=O)NC1CCCCC1 | 0.096% (inactive) | –
5 | Cc1noc(C)c1NC(=O)Nc1ccc2c(c1)CC(=O)N([C@@H](C)CO)C[C@H](C)[C@H](CN(C)Cc1ccc(Oc3ccccc3)cc1)O2 | 0.075% (inactive) | –
6 | COc1ccc(CN(C)C[C@H]2Oc3ccc(N(C)C)cc3CC(=O)N([C@H](C)CO)C[C@H]2C)cc1 | 0.315% (inactive) | –
7 | O=C(c1ccco1)N1CCN(C(=O)C2CC2)CC1 | -0.098% (inactive) | –
8 | C[C@@H]1CN([C@H](C)CO)C(=O)c2cccc(NC(=O)c3ccc(-c4nccs4)cc3)c2O[C@H]1CN(C)Cc1ccc(Oc2ccccc2)cc1 | 9.5% (inactive) | –
9 | C[C@@H]1CN([C@H](C)CO)C(=O)c2cc(NS(=O)(=O)c3ccc(F)cc3)ccc2O[C@@H](C)CCCCO[C@@H]1CN(C)S(C)(=O)=O | 3.44% (inactive) | –
10 | C[C@H]1CN([C@@H](C)CO)C(=O)Cc2cc(NC(=O)C3CC3)ccc2O[C@@H]1CN(C)S(=O)(=O)c1cccs1 | -0.038% (inactive) | –
11 | COC(=O)C[C@H]1CC[C@H]2[C@@H](COc3ccc(NC(=O)C4CC4)cc3C(=O)N2C)O1 | 3.57% (inactive) | –
12 | COc1ccccc1CNC(=O)[C@@H]1CCCN1S(=O)(=O)c1ccc(Cl)cc1 | -0.15% (inactive) | –
13 | CCCN1CCN(C(=O)c2ccc(CS(=O)c3ccc(Cl)cc3)o2)CC1 (stereo not given) | 0.214% (inactive) | –
14 | Cc1cc(C(=O)Nc2ccc(Cl)cc2)n(-c2ccccc2)n1 | 0.412% (inactive) | –
15 | COc1ccc(-c2nnc3n2CCCCC3)cc1OC | 0.027% (inactive) | –
16 | C[C@@H]1CN([C@H](C)CO)C(=O)c2cc(C3=CCCC3)cnc2O[C@H]1CN(C)C(=O)Nc1ccccc1 | -0.157% (inactive) | –
17 | COc1cccc(-c2cccc(-c3nc(C(=O)Nc4ccc(-c5ccccc5)cc4)cc4c3[C@@H](CCO)N(S(=O)C(C)(C)C)C4)c2)c1 (stereo not given in full) | 1.45% (inactive) | –
18 | COc1ccc(S(=O)(=O)N(C)C[C@H]2Oc3ccc(NC(=O)Nc4c(C)noc4C)cc3C(=O)N([C@@H](C)CO)C[C@@H]2C)cc1 | – | 2.96% (inactive)

Row | SMILES | activation (at 19.5 µM (top of the series)) | activation (at 21 µM (top of the series))
19 | C[C@H](CO)N1C[C@H](C)[C@H](CN(C)C(=O)c2ccccc2)OCc2ccccc2-c2c(n(C)c3ccccc23)C1=O | – | -0.093% (inactive)
20 | COc1ccc(C(=O)N(CCc2ccccc2)Cc2ccccc2)c(OC)n1 | -0.136% (inactive) | –
21 | COc1cccc(NC(=O)c2ccc(OC(F)(F)F)cc2)c1 | 0.305% (inactive) | –
22 | Cc1noc(C)c1S(=O)(=O)N(C)C[C@@H]1Oc2ccc(NC(=O)Nc3ccc(F)cc3)cc2CC(=O)N([C@@H](C)CO)C[C@@H]1C | -0.013% (inactive) | –
23 | COc1ccc(CNS(=O)(=O)c2ccc3c(c2)C(C)(C)C(=O)N3C)cc1 | 0.021% (inactive) | –
24 | Cc1noc(C)c1NC(=O)N(C)C[C@H]1Oc2ccc(NC(=O)c3ccncc3)cc2C(=O)N([C@H](C)CO)C[C@@H]1C | -0.129% (inactive) | –
25 | CS(=O)(=O)N1CCc2cc(C(=O)NC3CC3)ccc21 | 0.099% (inactive) | –
26 | C[C@H](CO)N1C[C@H](C)[C@H](CN(C)Cc2ccc(Cl)c(Cl)c2)Oc2c(NC(=O)CCCCCC(=O)Nc3ccccc3N)cccc2C1=O | 0.173% (inactive) | –
27 | CC(C)NC(=O)N(C)C[C@H]1Oc2ccc(NC(=O)CCN3CCOCC3)cc2C(=O)N([C@@H](C)CO)C[C@H]1C | -0.017% (inactive) | –
28 | COc1ccc(CN(C)C[C@@H]2Oc3ccc(NC(=O)c4ccncc4)cc3C(=O)N([C@H](C)CO)C[C@H]2C)cc1 | – | 0.114% (inactive)
29 | CC(C)NC(=O)N(C)C[C@@H]1Oc2ccc(NS(=O)(=O)c3cccs3)cc2CC(=O)N([C@@H](C)CO)C[C@H]1C | 0.096% (inactive) | –
30 | COc1ccc(N2CCN(C(=O)c3ccccc3NC(=O)C3=C(C)OCCS3)CC2)cc1 | -0.181% (inactive) | –
31 | COc1ccc(S(=O)(=O)N(C)C[C@@H]2Oc3ccc(NC(=O)c4ccncc4)cc3C(=O)N([C@H](C)CO)C[C@H]2C)cc1 | -0.082% (inactive) | –
32 | C[C@H](CO)N1C[C@H](C)[C@H](CN(C)S(C)(=O)=O)Oc2ccc(NC(=O)C3CCCCC3)cc2C1=O | – | -0.059% (inactive)
33 | C[C@H](CO)N1C[C@H](C)[C@@H](CN(C)S(=O)(=O)c2cn(C)cn2)Oc2ccc(N(C)C)cc2C1=O | 0.037% (inactive) | –
34 | O=C(CN(C(=O)c1csnn1)c1ccc2c(c1)OCCO2)NCc1ccc(F)cc1 | -0.09% (inactive) | –
35 | C[C@H](CO)N1C[C@H](C)[C@@H](CN(C)Cc2ccc(C(=O)O)cc2)Oc2ccc(NC(=O)Nc3ccc(F)cc3)cc2CC1=O | 0.279% (inactive) | –
